System: 616215-338-R-J1-PDC complex spheroid viability
Assay: Anticancer human tumor 616215-338-R-J1-PDC patient-derived colon adenocarcinoma cell line growth inhibition [POLQ]
Conditions: for IC50: curve of first compound; for viability, T/C: stronger effect = lower value
Protocol: Multicellular complex tumor spheroid response to Polymerase (POL) inhibitors (novobiocin, ART-558, RP6685) in combination with a variety of drugs and investigational agents in selected tumor cell lines
The POL inhibitors (novobiocin, ART-558, and RP6685) were evaluated both individually and in combination with standard of care and investigational anticancer small molecules within a complex spheroid model of solid tumors. . Complex spheroids include a stromal component modeled by human endothelial cells (HUVEC) and fibroblasts modeled by human mesenchymal stem cells (MSCs). The concentration ranges selected for each drug and investigational agent were based upon clinically achievable concentrations if the clinical Cmax of the agent was known.
Compounds. The drugs and investigational agents: novobiocin (NSC847541), ART-558 (NSC835418), RP-6685 (NSC848927), peposertib (NSC802822), ceralasertib (NSC780249), elimusertib (NSC800525), camonsertib (NSC841442), AZD-1390 (NSC803789), olaparib (NSC753686), talazoparib (NSC767125), rucaparib (NSC756644), sotorasib (NSC818433), MRTX-1133 (NSC836407), SN-38 (NSC673596), topotecan (NSC609699), epotoside (NSC141540), doxorubicin (NSC123127), gemcitabine (NSC613327), 5-fluorouracil (NSC19893), paclitaxel (NSC125973), vemurafenib (NSC761431), MSA-2 (NSC828583), SN-011 (NSC837082), adavosertib (NSC754352), prexasertib (NSC758257), carboplatin (NSC241240) and oxaliplatin (NSC266046), were obtained from the National Cancer Institute (NCI) Developmental Therapeutics Program Chemical Repository (21). The FDA-approved anticancer drug set is available from the Developmental Therapeutics Program at https://dtp.cancer.gov/organization/dscb/obtaining/. […] The stock solutions were prepared in dimethyl sulfoxide (DMSO, Sigma-Aldrich, St. Louis, MO, cat. D2650), except for the platinum compounds which were prepared in saline (Quality Biological, Gaithersburg, MD, cat. 114-055-101), at 800-fold the tested concentration and stored at -70 degrees C prior to their use. All drugs and investigational agents were tested over a range starting from a high concentration at or near the clinical Cmax and decreasing in half-log increments. If the clinical Cmax for an agent had not been determined, the highest concentration tested was 10 microM, except for SN-38, which was tested at a high concentration of 1 microM.
Cell Culture. All cells were maintained in an incubator at 37 degrees C and 5% CO2 with 95% humidity. The PDC lines were cultured according to standard operating procedures established by the NCI PDMR (https://pdmr.cancer.gov). Table 3 of the manuscript, lists the cell lines along with the number of the three cell types plated to form the mct-spheroids and media for tumor cell growth. After thawing, all PDC lines, except 997537-175-T-J1-PDC and 415267-285-R-J2-PDC, were cultured in Matrigel-coated flasks prepared with a working solution of 1X Ham's F-12 nutrient mix, without supplementation (Thermo Fisher Scientific, cat. 11765054), 100 U/mL penicillin-streptomycin (Thermo Fisher Scientific, cat. 15140122), and 2.5% Matrigel (Corning Inc., Corning, NY, cat. 354248) for the first three passages. The two PDC lines 997537-175-T-J1-PDC and 415267-285-R-J2-PDC were cultured on uncoated flasks. The 857933-349-R-J2-PDC line was cultured in 6C/Colon 1B media containing advanced DMEM/F-12 (Thermo Fisher Scientific, cat. 12634028), 10 mM HEPES (Thermo Fisher Scientific, cat. 15630080), 1X GlutaMAX supplement (Thermo Fisher Scientific, cat. 35050061), 0.1 mg/mL primocin (InvivoGen, San Diego, CA, cat. ant-pm-2), 10% defined fetal bovine serum, heat inactivated (HyClone Laboratories Inc., Logan, UT, cat. SH30070.03HI), 50% L-WRN conditioned media (ATCC, cat. CRL-3276), 1.25 mM N-Acetyl-L-cysteine (Sigma-Aldrich, cat. A9165), 10 mM nicotinamide (Sigma-Aldrich, cat. N0636), 1X B-27 supplement (Thermo Fisher Scientific, cat. 17504044), 1X N-2 supplement (Thermo Fisher Scientific, cat. […]

[1] = second compound 0.0316 µM, first compound 0.0316 µM
[2] = second compound 0.0316 µM, first compound 0.1 µM
[3] = second compound 0.0316 µM, first compound 0.316 µM
[4] = second compound 0.0316 µM, first compound 1 µM
[5] = second compound 0.0316 µM, first compound 3.16 µM
[6] = second compound 0.0316 µM, first compound 10 µM
[7] = second compound 0.1 µM, first compound 0.0316 µM
[8] = second compound 0.1 µM, first compound 0.1 µM
[9] = second compound 0.1 µM, first compound 0.316 µM
[10] = second compound 0.1 µM, first compound 1 µM
[11] = second compound 0.1 µM, first compound 3.16 µM
[12] = second compound 0.1 µM, first compound 10 µM
[13] = second compound 0.316 µM, first compound 0.0316 µM
[14] = second compound 0.316 µM, first compound 0.1 µM
[15] = second compound 0.316 µM, first compound 0.316 µM
[16] = second compound 0.316 µM, first compound 1 µM
[17] = second compound 0.316 µM, first compound 3.16 µM
[18] = second compound 0.316 µM, first compound 10 µM
[19] = second compound 1 µM, first compound 0.0316 µM
[20] = second compound 1 µM, first compound 0.1 µM
[21] = second compound 1 µM, first compound 0.316 µM
[22] = second compound 1 µM, first compound 1 µM
[23] = second compound 1 µM, first compound 3.16 µM
[24] = second compound 1 µM, first compound 10 µM
[25] = second compound 3.16 µM, first compound 0.0316 µM
[26] = second compound 3.16 µM, first compound 0.1 µM
[27] = second compound 3.16 µM, first compound 0.316 µM
[28] = second compound 3.16 µM, first compound 1 µM
[29] = second compound 3.16 µM, first compound 3.16 µM
[30] = second compound 3.16 µM, first compound 10 µM
[31] = second compound 10 µM, first compound 0.0316 µM
[32] = second compound 10 µM, first compound 0.1 µM
[33] = second compound 10 µM, first compound 0.316 µM
[34] = second compound 10 µM, first compound 1 µM
[35] = second compound 10 µM, first compound 3.16 µM
[36] = second compound 10 µM, first compound 10 µM
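Also: spheroids exposed to compounds for one week before readout.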
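For viability, T/C in this document: percent viability relative to DMSO vehicle wells taken as 100%.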

CNCc1ccc(-c2[nH]c3cc(F)cc4c3c2CCNC4=O)cc1 + COC1C(OC(N)=O)C(O)C(Oc2ccc3c(O)c(NC(=O)c4ccc(O)c(CC=C(C)C)c4)c(=O)oc3c2C)OC1(C)C gave an IC50 (second compound 0.0316 µM) of over 10 µM, an IC50 (second compound 0.1 µM) of over 10 µM and an IC50 (second compound 0.316 µM) of over 10 µM. For the same compound, the IC50 (second compound 1 µM) was over 10 µM, the IC50 (second compound 3.16 µM) was over 10 µM and the IC50 (second compound 10 µM) was over 10 µM. For the same compound, the viability, T/C [1] was 98.7%, the viability, T/C [2] was 99.8% and the viability, T/C [3] was 106%. The viability, T/C [4] was 111%, the viability, T/C [5] was 107% and the viability, T/C [6] was 93.3%. The viability, T/C [7] was 102%, the viability, T/C [8] was 102% and the viability, T/C [9] was 98.7%. The viability, T/C [10] was 99.5%, the viability, T/C [11] was 101% and the viability, T/C [12] was 83.9%. The viability, T/C [13] was 107%, the viability, T/C [14] was 113% and the viability, T/C [15] was 115%. For the same compound, the viability, T/C [16] was 105%, the viability, T/C [17] was 105% and the viability, T/C [18] was 83.2%. The viability, T/C [19] was 105%, the viability, T/C [20] was 106% and the viability, T/C [21] was 101%. The viability, T/C [22] was 102%, the viability, T/C [23] was 109% and the viability, T/C [24] was 76.2%. The viability, T/C [25] was 106%, the viability, T/C [26] was 101% and the viability, T/C [27] was 106%. The viability, T/C [28] was 109%, the viability, T/C [29] was 117% and the viability, T/C [30] was 58.9%. For the same compound, the viability, T/C [31] was 109%, the viability, T/C [32] was 101% and the viability, T/C [33] was 97.6%. The viability, T/C [34] was 104%, the viability, T/C [35] was 105% and the viability, T/C [36] was 55%.
For O=C(c1cc(Cc2n[nH]c(=O)c3ccccc23)ccc1F)N1CCN(C(=O)C2CC2)CC1 + COC1C(OC(N)=O)C(O)C(Oc2ccc3c(O)c(NC(=O)c4ccc(O)c(CC=C(C)C)c4)c(=O)oc3c2C)OC1(C)C, the IC50 (second compound 0.0316 µM) was over 10 µM, the IC50 (second compound 0.1 µM) was over 10 µM and the IC50 (second compound 0.316 µM) was over 10 µM. It also gave an IC50 (second compound 1 µM) of over 10 µM, an IC50 (second compound 3.16 µM) of over 10 µM and an IC50 (second compound 10 µM) of over 10 µM. The viability, T/C [1] was 103%, the viability, T/C [2] was 99.2% and the viability, T/C [3] was 107%. For the same compound, the viability, T/C [4] was 105%, the viability, T/C [5] was 109% and the viability, T/C [6] was 87.8%. The viability, T/C [7] was 102%, the viability, T/C [8] was 89% and the viability, T/C [9] was 98.5%. For the same compound, the viability, T/C [10] was 99.8%, the viability, T/C [11] was 110% and the viability, T/C [12] was 85.7%. For the same compound, the viability, T/C [13] was 102%, the viability, T/C [14] was 113% and the viability, T/C [15] was 103%. The viability, T/C [16] was 101%, the viability, T/C [17] was 109% and the viability, T/C [18] was 98.2%. The viability, T/C [19] was 107%, the viability, T/C [20] was 108% and the viability, T/C [21] was 102%. The viability, T/C [22] was 101%, the viability, T/C [23] was 97% and the viability, T/C [24] was 93.4%. For the same compound, the viability, T/C [25] was 99.6%, the viability, T/C [26] was 95% and the viability, T/C [27] was 96.7%. For the same compound, the viability, T/C [28] was 94.7%, the viability, T/C [29] was 109% and the viability, T/C [30] was 88.2%. For the same compound, the viability, T/C [31] was 104%, the viability, T/C [32] was 94% and the viability, T/C [33] was 106%. It also gave a viability, T/C [34] of 105%, a viability, T/C [35] of 95.1% and a viability, T/C [36] of 84.5%.
In the case of COc1cccc2c1C(=O)c1c(O)c3c(c(O)c1C2=O)CC(O)(C(=O)CO)CC3OC1CC(N)C(O)C(C)O1 (stereo unspecified) + Cc1cccc(N(C)C(=O)C2C(O)CCN2c2nc(C)cc(C(F)(F)F)c2C#N)c1, the IC50 (second compound 0.0316 µM) is reported as 1.07 µM, the IC50 (second compound 0.1 µM) is reported as 1 µM and the IC50 (second compound 0.316 µM) is reported as 0.785 µM. For the same compound, the IC50 (second compound 1 µM) was 0.688 µM, the IC50 (second compound 3.16 µM) was 0.665 µM and the IC50 (second compound 10 µM) was 0.823 µM. The viability, T/C [1] was 95.8%, the viability, T/C [2] was 92.5% and the viability, T/C [3] was 79.8%. It also gave a viability, T/C [4] of 55.9%, a viability, T/C [5] of 6.78% and a viability, T/C [6] of 0.53%. For the same compound, the viability, T/C [7] was 109%, the viability, T/C [8] was 92.1% and the viability, T/C [9] was 80%. It also gave a viability, T/C [10] of 57.5%, a viability, T/C [11] of 6.89% and a viability, T/C [12] of 0.26%. The viability, T/C [13] was 106%, the viability, T/C [14] was 83.4% and the viability, T/C [15] was 69.2%. For the same compound, the viability, T/C [16] was 56.7%, the viability, T/C [17] was 3.48% and the viability, T/C [18] was 0.22%. For the same compound, the viability, T/C [19] was 111%, the viability, T/C [20] was 85.8% and the viability, T/C [21] was 71.2%. The viability, T/C [22] was 48.3%, the viability, T/C [23] was 3.44% and the viability, T/C [24] was 0.22%. The viability, T/C [25] was 96.6%, the viability, T/C [26] was 79.9% and the viability, T/C [27] was 65.5%. The viability, T/C [28] was 48.9%, the viability, T/C [29] was 1.58% and the viability, T/C [30] was 0.25%. For the same compound, the viability, T/C [31] was 83.2%, the viability, T/C [32] was 82.6% and the viability, T/C [33] was 76.7%. For the same compound, the viability, T/C [34] was 44.7%, the viability, T/C [35] was 0.88% and the viability, T/C [36] was 0.31%.

Source: PubChem BioAssay AID1963843 (Molecular Pharmacology Branch, DTP, NCI, 2024)
